In brackets after ≈: the same amount, converted by molar mass. Read-outs that look alike come from different tables or passages of the source.
Columns and labels:
[1] = system: quinolone susceptible pneumococci (ciprofloxacin MICs ≦4.0 μg/ml); experiment: Agar dilution MICs of 207 quinolone susceptible pneumococcal strains; assay type: cell-based, Streptococcus pneumoniae; conditions: agar dilution; for MIC: read-out: MIC range
Method: All susceptible, and some intermediate and resistant strains, were recent U.S. isolates. The remainder of intermediate and resistant strains were isolated in South Africa, Spain, France, Central and Eastern Europe, and Korea. […] Additionally these strains were tested for mutations in parC, gyrA, parE, and gyrB (Pan, et al., Antimicrob. Agents Chemother. 40:2321-2326, 1996) and for efflux mechanism (Brenwald, et al., Antimicrob. Agents Chemother. 42:2032-2035, 1998). For time-kill studies, 4 penicillin susceptible, 4 intermediate and 4 resistant strains (2 quinolone resistant) were tested, while for PAE studies 5 quinolone susceptible and 1 resistant strains were studied.
(§1) Agar dilution methodology was performed on 234 strains as described previously (M. R. Jacobs, Clin. Infect. Dis. 15:119-127, 1992; Jacobs, et al., Rev. Med. Microbiol. 6:77-93, 1995), using Mueller-Hinton agar (BBL Microbiology Systems, Cockeysville, Md.) supplemented with 5% sheep blood. Broth MICs for 12 strains tested by time-kill and 6 tested by PAE were performed according to NCCLS recommendations (Methods for Dilution Antimicrobial Susceptibility Tests for Bacteria that Grow Aerobically, 3rd Edition, NCCLS, Villanova, Pa.) using cation-adjusted Mueller-Hinton broth with 5% lysed defibrinated horse blood. Standard quality control strains, including Streptococcus pneumoniae ATCC 49619, were included in each run of agar and broth dilution MICs.

pneumococcal strains = experiment: Microbroth dilution MICs of strains tested by time-kill and PAE; assay type: cell-based; conditions: Streptococcus pneumoniae, read-out: Microdilution MIC
Method: as §1

[2] = system: pneumococci (5 quinolone susceptible and 1 resistant strains); experiment: Post-antibiotic effect (PAE) testing; assay type: cell-based, Streptococcus pneumoniae; conditions: for PAE for non-quinolone compounds: range over strains
Method: The post-antibiotic effect (PAE) (Craig, et al., V. Lorian (ed.) Antibiotics in Laboratory Medicine, Williams and Wilkins, Baltimore, pages 296-399, 1996) was determined by the viable plate count method, using Mueller-Hinton broth (MHB) supplemented with 5% lysed horse blood when testing pneumococci. […] Additionally, the one quinolone resistant strain was exposed at quinolone concentrations 5×MIC. Tubes containing 5 ml broth with antibiotic were inoculated with approximately 5×10^6 cfu/ml. Growth controls with inoculum but no antibiotic were included with each experiment. Tubes were placed in a shaking water bath at 35° C. for 1 h. At the end of the exposure period, cultures were diluted 1:1000 to remove antibiotic.
Viability counts were determined before exposure and immediately after dilution (0 h), and then every 2 h until tube turbidity reached a #1 McFarland standard. Inocula were prepared by suspending growth from an overnight blood agar plate in broth. The broth was incubated at 35° C. for 2-4 h in a shaking water bath until turbidity matched a #1 McFarland standard, and checked for viability by plate counts (Spangler, et al., Antimicrob. Agents Chemother. 41:2173-9176, 1997; Spangler, et al., Antimicrob. Agents Chemother. 42:1253-1255, 1998).
The PAE was defined as PAE=T-C; T=time required for viability counts of an antibiotic-exposed culture to increase by 1 log10 above counts immediately after dilution; C=corresponding time for growth control. For each experiment, viability counts (log10 cfu/ml) were plotted against time, and results expressed as the mean of two separate assays±S D (Craig, et al., V. Lorian (ed), Antibiotics in Laboratory Medicine, Williams and Wilkins, Baltimore, pages 296-329, 1996).

[3] = system: quinolone resistant pneumococci; experiment: Determination of efflux mechanism: MICs in the presence and absence of reserpine; assay type: cell-based, Streptococcus pneumoniae; conditions: for number of strains with lower MICs in the presence of reserpine: of 28 quinolone resistant strains, 10 μg/ml reserpine
Method: MICs were determined in the presence and absence of 10 μg/ml of reserpine (Sigma Chemicals, St. Louis, Mo.) as known in the art.
MICs were determined in the presence and absence of […] of reserpine (Sigma Chemicals, St. Louis, Mo., USA) as described previously (Brenwald, et al., Antimicrob. Agents Chemother. 42:2039-2035, 1998 and Davies, et al., Antimicrob. Agents Chemother. 43:1177-1182S, 1999).

[4] = system: quinolone-resistant Haemophilus influenzae strains; experiment: Microdilution MIC determination in HTM for quinolone-resistant Haemophilus influenzae strains; assay type: cell-based; conditions: 9 quinolone-resistant Haemophilus influenzae strains
Method: Inocula were prepared from chocolate agar plates incubated for a full 24 hours by the direct colony suspension method as follows: In a tube of Mueller-Hinton broth (Difco), an organism suspension was made to a density of a 0.5 McFarland standard (1×10^8 CFU/ml). The latter inoculum was diluted in sterile saline such that final organisms suspensions in trays yielded colony counts of 3-8×10^5 CFU/ml. Frozen microdilution trays were obtained from MicroMedia Systems, Inc. (Cleveland, Ohio, USA). Each tray contained all antimicrobials prepared in freshly made HTM. Wells were inoculated with 100 μl suspensions and incubated in ambient air at 35° C. for 20-24 hours. The lowest drug concentration showing no growth was read as the MIC. Standard quality control strains, including H. influenzae ATCC 49766, H. influenzae ATCC 49247, Staphylococcus aureus ATCC 29213 and Escherichia coli ATCC 25922 were included with each run.

[5] = Streptococcus pneumoniae, Penicillin I strains, read-out: MIC90
[6] = Streptococcus pneumoniae, Penicillin R strains
[7] = Streptococcus pneumoniae, Penicillin R strains, read-out: MIC90
[8] = Streptococcus pneumoniae, Penicillin S strains, read-out: MIC90
[9] = strain 1 (S) penicillin susceptible
[10] = strain 2 (S) penicillin susceptible
[11] = strain 3 (S) penicillin susceptible, quinolone-resistant
[12] = strain 5 (I) penicillin intermediate
[13] = strain 6 (I) penicillin intermediate
[14] = strain 9 (R) penicillin resistant
[15] = strain 12 (R) penicillin resistant
[16] = 5×MIC, quinolone resistant strain
[17] = 10×MIC for 1 h, range over 5 quinolone susceptible strains
[18] = Streptococcus pneumoniae, Penicillin I strains
[19] = Streptococcus pneumoniae, Penicillin S strains
[20] = strain 4 (S) penicillin susceptible, quinolone-resistant
[21] = strain 7 (I) penicillin intermediate
[22] = strain 8 (I) penicillin intermediate
[23] = strain 11 (R) penicillin resistant

CC[C@H]1OC(=O)[C@H](C)[C@@H](O[C@H]2C[C@@](C)(OC)[C@@H](O)[C@H](C)O2)[C@H](C)[C@@H](O[C@@H]2O[C@H](C)C[C@H](N(C)C)[C@H]2O)[C@](C)(O)C[C@@H](C)CN(C)[C@H](C)[C@@H](O)[C@]1(C)O [Azithromycin, azithromycin]
MIC90 [1, 5]: > 128 µg/mL | MIC50 [1, 6]: 4 µg/mL (≈ 5.34 µM) | MIC90 [1, 7]: > 128 µg/mL | MIC90 [1, 8]: 0.5 µg/mL (≈ 0.668 µM) | MIC90 ([1]; Penicillin I strains): >128.0 µg/mL | MIC90 ([1]; Penicillin R strains): >128.0 µg/mL | MIC (pneumococcal strains; [9]): 0.008 µg/mL (≈ 0.0107 µM) | MIC (pneumococcal strains; [10]): 0.06 µg/mL (≈ 0.0801 µM) | MIC (pneumococcal strains; [11]): > 64 µg/mL | MIC (pneumococcal strains; [12]): > 64 µg/mL | MIC (pneumococcal strains; [13]): 0.03 µg/mL (≈ 0.0401 µM) | MIC (pneumococcal strains; [14]): > 64 µg/mL | MIC (pneumococcal strains; strain 10 (I)): > 64 µg/mL | MIC (pneumococcal strains; [15]): > 64 µg/mL | PAE for non-quinolone compounds ([2]; 10×MIC): 1.3 to 3.0 h

O=C(O)c1cn(C2CC2)c2cc(N3CCNCC3)c(F)cc2c1=O [Ciprofloxacin, ciprofloxacin]
number of strains with lower MICs in the presence of reserpine [3]: 23 strains | Number of dilutions decrease after incubation with reserpine ([3]; strain 1): 2x X | Number of dilutions decrease after incubation with reserpine ([3]; strain 2): 8x X | Number of dilutions decrease after incubation with reserpine ([3]; strain 6): 2X | Number of dilutions decrease after incubation with reserpine ([3]; strain 8): 2X | Number of dilutions decrease after incubation with reserpine ([3]; strain 9): 8X | Number of dilutions decrease after incubation with reserpine ([3]; strain 10): 2X | Number of dilutions decrease after incubation with reserpine ([3]; strain 11): 16X | Number of dilutions decrease after incubation with reserpine ([3]; strain 13): 2X | Number of dilutions decrease after incubation with reserpine ([3]; strain 18): 2X | Number of dilutions decrease after incubation with reserpine ([3]; strain 19): 2X | Number of dilutions decrease after incubation with reserpine ([3]; strain 20): 2X | Number of dilutions decrease after incubation with reserpine ([3]; strain 21): 2X | Number of dilutions decrease after incubation with reserpine ([3]; strain 22): 2X | Number of dilutions decrease after incubation with reserpine ([3]; strain 23): 8X | Number of dilutions decrease after incubation with reserpine ([3]; strain 24): 2x X | Number of dilutions decrease after incubation with reserpine ([3]; strain 28): 8x X | PAE [2, 16]: 3.7 h | PAE [2, 17]: 0.5 to 1.5 h | PAE ([2]; 10×MIC, quinolone resistant strain): 6.3 h | MIC50 [4]: 1 µg/mL (≈ 3.02 µM) | MIC Range [4]: 0.25 to 8.0 µg/mL

CC[C@H]1OC(=O)[C@H](C)[C@@H](O[C@H]2C[C@@](C)(OC)[C@@H](O)[C@H](C)O2)[C@H](C)[C@@H](O[C@@H]2O[C@H](C)C[C@H](N(C)C)[C@H]2O)[C@](C)(OC)C[C@@H](C)C(=O)[C@H](C)[C@@H](O)[C@]1(C)O [Clarithromycin, clarithromycin]
MIC50 [1, 18]: 0.03 µg/mL (≈ 0.0401 µM) | MIC90 [1, 5]: 32 µg/mL (≈ 42.8 µM) | MIC50 [1, 6]: 2 µg/mL (≈ 2.67 µM) | MIC90 [1, 7]: > 128 µg/mL | MIC50 [1, 19]: 0.03 µg/mL (≈ 0.0401 µM) | MIC90 [1, 8]: 0.06 µg/mL (≈ 0.0802 µM) | MIC90 ([1]; Penicillin R strains): >128.0 µg/mL | MIC (pneumococcal strains; [9]): 0.008 µg/mL (≈ 0.0107 µM) | MIC (pneumococcal strains; [10]): 0.03 µg/mL (≈ 0.0401 µM) | MIC (pneumococcal strains; [11]): > 64 µg/mL | MIC (pneumococcal strains; [20]): 0.03 µg/mL (≈ 0.0401 µM) | MIC (pneumococcal strains; [12]): 32 µg/mL (≈ 42.8 µM) | MIC (pneumococcal strains; [13]): 0.008 µg/mL (≈ 0.0107 µM) | MIC (pneumococcal strains; [21]): 0.016 µg/mL (≈ 0.0214 µM) | MIC (pneumococcal strains; [22]): 0.03 µg/mL (≈ 0.0401 µM) | MIC (pneumococcal strains; [14]): > 64 µg/mL | MIC (pneumococcal strains; strain 10 (I)): > 64 µg/mL | MIC (pneumococcal strains; [23]): 0.03 µg/mL (≈ 0.0401 µM) | MIC (pneumococcal strains; [15]): > 64 µg/mL | PAE for non-quinolone compounds ([2]; 10×MIC): 1.8 to 4.5 h

C[C@H]1COc2c(N3CCN(C)CC3)c(F)cc3c(=O)c(C(=O)O)cn1c23 [Levofloxacin, levofloxacin]
MIC50 [1, 18]: 1 µg/mL (≈ 2.77 µM) | MIC90 [1, 5]: 2 µg/mL (≈ 5.53 µM) | MIC [1, 18]: 0.5 to 4 µg/mL (≈ 1.38 to 11.1 µM) | MIC50 [1, 6]: 1 µg/mL (≈ 2.77 µM) | MIC90 [1, 7]: 2 µg/mL (≈ 5.53 µM) | MIC [1, 6]: 1 to 2 µg/mL (≈ 2.77 to 5.53 µM) | MIC50 [1, 19]: 1 µg/mL (≈ 2.77 µM) | MIC90 [1, 8]: 2 µg/mL (≈ 5.53 µM) | MIC [1, 19]: 0.125 to 4 µg/mL (≈ 0.346 to 11.1 µM) | MIC50 ([1]; Streptococcus pneumoniae, all 207 strains (64 penicillin susceptible, 68 intermediate, 75 resistant)): 1 µg/mL (≈ 2.77 µM) | MIC90 ([1]; Streptococcus pneumoniae, all 207 strains (64 penicillin susceptible, 68 intermediate, 75 resistant), read-out: MIC90): 2 µg/mL (≈ 5.53 µM) | number of strains with lower MICs in the presence of reserpine [3]: 7 strains | Number of dilutions decrease after incubation with reserpine ([3]; strain 7): 2X | Number of dilutions decrease after incubation with reserpine ([3]; strain 11): 4X | Number of dilutions decrease after incubation with reserpine ([3]; strain 12): 2X | Number of dilutions decrease after incubation with reserpine ([3]; strain 23): 2X | Number of dilutions decrease after incubation with reserpine ([3]; strain 25): 2x X | Number of dilutions decrease after incubation with reserpine ([3]; strain 26): 2x X | Number of dilutions decrease after incubation with reserpine ([3]; strain 28): 4x X | MIC (pneumococcal strains; [9]): 2 µg/mL (≈ 5.53 µM) | MIC (pneumococcal strains; [10]): 1 µg/mL (≈ 2.77 µM) | MIC (pneumococcal strains; [11]): 32 µg/mL (≈ 88.6 µM) | MIC (pneumococcal strains; [20]): 32 µg/mL (≈ 88.6 µM) | MIC (pneumococcal strains; [12]): 1 µg/mL (≈ 2.77 µM) | MIC (pneumococcal strains; [13]): 2 µg/mL (≈ 5.53 µM) | MIC (pneumococcal strains; [21]): 1 µg/mL (≈ 2.77 µM) | MIC (pneumococcal strains; [22]): 1 µg/mL (≈ 2.77 µM) | MIC (pneumococcal strains; [14]): 2 µg/mL (≈ 5.53 µM) | MIC (pneumococcal strains; strain 10 (I)): 2 µg/mL (≈ 5.53 µM) | MIC (pneumococcal strains; [23]): 1 µg/mL (≈ 2.77 µM) | MIC (pneumococcal strains; [15]): 2 µg/mL (≈ 5.53 µM) | PAE [2, 16]: 1.3 h | PAE [2, 17]: 0.9 to 2.3 h | MIC50 [4]: 1 µg/mL (≈ 2.77 µM) | MIC Range [4]: 0.25 to 4.0 µg/mL

Source: patent publication US20040044006A1, “Methods of use of quinolone compounds against pneumococcal and haemophilus bacteria” (priority 1999, published 2004)
